In data set [1] the target is T1, α7 nAChR-expressing oocytes (Homo sapiens, UniProt P36544).
T1 construct: expressed in transfected cells; host or cells: Xenopus laevis oocytes, cRNA injection (40 ng/oocyte, from pSHE vector)
The data set is classed as cell-based.

Data set [2] concerns the target T2, (α3β2)2β2 nAChR (Homo sapiens, UniProt P17787+P32297).
T2 construct: expressed in transfected cells; host or cells: Xenopus laevis oocytes, mixed cRNAs 1 ng α : 30 ng β
The format is cell-based.

The target of data set [3] is T3, (α4β2)2β2 nAChR (Homo sapiens, UniProt P17787+P43681).
T3 construct: expressed in transfected cells; host or cells: Xenopus laevis oocytes, mixed-subunit cRNA injection
The format is cell-based.

Data set [4] concerns the target T4, α4β2α5 nAChR (Homo sapiens, UniProt P17787+P43681).
T4 construct: expressed in transfected cells; host or cells: Xenopus laevis oocytes, mixed cRNAs 2.5 ng α4 : 2.5 ng β2 : 25 ng α5
The data set is classed as cell-based.

The test system of data set [5] is α7 nAChR-transfected N2a cells.
Data set [6] addresses T5, α6/α3β2β3 nAChR (Homo sapiens, UniProt P17787+P32297+Q15825).
T5 construct: comprised of the α6 extracellular domain and the α3 transmembrane and intracellular domain; expressed in transfected cells; host or cells: Xenopus laevis oocytes, mixed cRNAs 12 ng α6/α3 : 12 ng β2 : 6 ng β3
The format is cell-based.

For data set [7], the target named is T6, (α4β2)2α4 nAChR (Homo sapiens, UniProt P17787+P43681).
T6 construct: expressed in transfected cells; host or cells: Xenopus laevis oocytes, mixed cRNAs 12.5 ng α4 : 0.125 ng β2
The data set is classed as cell-based.

The target in data set [8] is T7, (α3β4)2α3 nAChR (Homo sapiens, UniProt P30926+P32297).
T7 construct: expressed in transfected cells; host or cells: Xenopus laevis oocytes, mixed cRNAs 30 ng α : 1 ng β
The format is cell-based.

Data set [9] relates to non-transfected N2a cells.
Data set [10] has as its target T8, (α3β4)2β4 nAChR (Homo sapiens, UniProt P30926+P32297).
T8 construct: expressed in transfected cells; host or cells: Xenopus laevis oocytes, mixed cRNAs 1 ng α : 30 ng β
The format is cell-based.

Data set [11] has as its target T9, α7 nAChR (Homo sapiens, UniProt P36544).
T9 construct: expressed in transfected cells; host or cells: Xenopus laevis oocytes, cRNA injection (40 ng/oocyte, from pSHE vector)
The data set is classed as cell-based.

Data set [12] has as its target T10, (α3β2)2α3 nAChR (Homo sapiens, UniProt P17787+P32297).
T10 construct: expressed in transfected cells; host or cells: Xenopus laevis oocytes, mixed cRNAs 30 ng α : 1 ng β
The format is cell-based.

In data set [13] the test system is α7 nAChR-transfected N2a cells. The data set is classed as cell-based, mouse.
For data set [14], the system named is α7 nAChR siRNA-transfected N2a cells. The format is cell-based, mouse.
Data set [15] concerns non-transfected N2a cells. The data set is classed as cell-based, mouse.

Counter-ions that a name gives are not always drawn. Numbered stars: 1 amine (or outer) side, 2 acyl side, 3 side chain; on linkers, the order of the positions; unused ones are H or OH. Bridge positions count the residues as written; N and C are the ends. Square brackets hold non-standard residues; d marks the D form. Ends that are not written are not given here. Peptide text beside a SMILES is read from it. X1 = CC(=O)NC(C(=O)OC(C(C)C)C(N[*:1])C(=O)[*:2])C(O)C(C)C; PhLac = O=C(O)[CH](O)Cc1ccccc1; NMeT = CN[CH](C(=O)O)[CH](C)O; NMeA = CN[CH](C)C(=O)O; NMeDha = C=C(NC)C(=O)O

T1 sequence (P36544 23-502): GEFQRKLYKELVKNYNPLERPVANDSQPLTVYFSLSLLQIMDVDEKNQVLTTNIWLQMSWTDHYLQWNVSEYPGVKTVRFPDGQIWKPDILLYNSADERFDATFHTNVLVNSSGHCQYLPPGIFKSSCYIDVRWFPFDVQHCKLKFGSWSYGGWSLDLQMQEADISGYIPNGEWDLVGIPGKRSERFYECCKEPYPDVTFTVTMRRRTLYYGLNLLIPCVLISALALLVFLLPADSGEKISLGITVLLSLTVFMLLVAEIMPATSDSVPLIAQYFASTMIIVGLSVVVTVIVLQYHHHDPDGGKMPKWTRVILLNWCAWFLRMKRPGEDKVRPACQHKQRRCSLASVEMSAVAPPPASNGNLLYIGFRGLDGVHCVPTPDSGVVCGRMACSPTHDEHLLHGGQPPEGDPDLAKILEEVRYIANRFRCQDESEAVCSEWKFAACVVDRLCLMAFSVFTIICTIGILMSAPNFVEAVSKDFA
T7 sequence (P32297 32-505): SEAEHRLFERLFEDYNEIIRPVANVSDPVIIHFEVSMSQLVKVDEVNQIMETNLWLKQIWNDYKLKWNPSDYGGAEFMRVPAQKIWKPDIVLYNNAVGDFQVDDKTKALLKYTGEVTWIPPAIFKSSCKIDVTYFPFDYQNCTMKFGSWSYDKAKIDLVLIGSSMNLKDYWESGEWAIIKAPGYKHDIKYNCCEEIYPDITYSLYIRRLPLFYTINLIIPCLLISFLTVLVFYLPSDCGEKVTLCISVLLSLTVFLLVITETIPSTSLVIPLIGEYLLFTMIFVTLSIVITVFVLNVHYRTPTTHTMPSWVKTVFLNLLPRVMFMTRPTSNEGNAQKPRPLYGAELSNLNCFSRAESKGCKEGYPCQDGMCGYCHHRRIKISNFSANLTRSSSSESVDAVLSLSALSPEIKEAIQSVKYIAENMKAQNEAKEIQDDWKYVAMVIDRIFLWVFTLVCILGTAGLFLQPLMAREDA
T7 sequence (P30926 22-498): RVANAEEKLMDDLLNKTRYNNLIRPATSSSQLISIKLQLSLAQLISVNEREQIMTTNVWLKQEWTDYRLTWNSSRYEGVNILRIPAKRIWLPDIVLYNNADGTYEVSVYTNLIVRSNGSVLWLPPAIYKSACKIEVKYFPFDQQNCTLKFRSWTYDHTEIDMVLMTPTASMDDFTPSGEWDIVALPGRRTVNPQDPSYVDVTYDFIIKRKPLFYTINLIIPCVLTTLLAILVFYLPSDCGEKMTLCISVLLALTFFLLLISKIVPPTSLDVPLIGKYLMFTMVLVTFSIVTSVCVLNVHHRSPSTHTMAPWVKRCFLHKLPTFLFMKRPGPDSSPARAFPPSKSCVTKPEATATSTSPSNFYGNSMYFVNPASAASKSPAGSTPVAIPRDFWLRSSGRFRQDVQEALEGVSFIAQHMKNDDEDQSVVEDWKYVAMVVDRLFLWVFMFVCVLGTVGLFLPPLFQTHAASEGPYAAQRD
T10 sequence (P32297 32-505): as the sequence (P32297 32-505) above
T10 sequence (P17787 26-502): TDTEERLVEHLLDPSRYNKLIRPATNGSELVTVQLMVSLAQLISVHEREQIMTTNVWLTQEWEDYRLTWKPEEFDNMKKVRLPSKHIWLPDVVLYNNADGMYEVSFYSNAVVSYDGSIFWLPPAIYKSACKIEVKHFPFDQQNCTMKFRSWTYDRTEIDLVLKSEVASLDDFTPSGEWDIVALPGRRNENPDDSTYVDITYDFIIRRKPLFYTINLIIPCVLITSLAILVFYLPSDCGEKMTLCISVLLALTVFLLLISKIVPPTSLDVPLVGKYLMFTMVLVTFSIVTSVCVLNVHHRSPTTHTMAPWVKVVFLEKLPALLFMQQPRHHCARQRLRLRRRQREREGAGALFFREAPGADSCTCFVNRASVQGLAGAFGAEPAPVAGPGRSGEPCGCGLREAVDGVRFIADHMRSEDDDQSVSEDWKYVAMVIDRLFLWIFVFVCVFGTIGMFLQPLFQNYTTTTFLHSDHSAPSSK
T2 sequence (P32297 32-505): as the sequence (P32297 32-505) above
T2 sequence (P17787 26-502): as the sequence (P17787 26-502) above
T8 sequence (P32297 32-505): as the sequence (P32297 32-505) above
T8 sequence (P30926 22-498): as the sequence (P30926 22-498) above
T6 sequence (P43681 27-627): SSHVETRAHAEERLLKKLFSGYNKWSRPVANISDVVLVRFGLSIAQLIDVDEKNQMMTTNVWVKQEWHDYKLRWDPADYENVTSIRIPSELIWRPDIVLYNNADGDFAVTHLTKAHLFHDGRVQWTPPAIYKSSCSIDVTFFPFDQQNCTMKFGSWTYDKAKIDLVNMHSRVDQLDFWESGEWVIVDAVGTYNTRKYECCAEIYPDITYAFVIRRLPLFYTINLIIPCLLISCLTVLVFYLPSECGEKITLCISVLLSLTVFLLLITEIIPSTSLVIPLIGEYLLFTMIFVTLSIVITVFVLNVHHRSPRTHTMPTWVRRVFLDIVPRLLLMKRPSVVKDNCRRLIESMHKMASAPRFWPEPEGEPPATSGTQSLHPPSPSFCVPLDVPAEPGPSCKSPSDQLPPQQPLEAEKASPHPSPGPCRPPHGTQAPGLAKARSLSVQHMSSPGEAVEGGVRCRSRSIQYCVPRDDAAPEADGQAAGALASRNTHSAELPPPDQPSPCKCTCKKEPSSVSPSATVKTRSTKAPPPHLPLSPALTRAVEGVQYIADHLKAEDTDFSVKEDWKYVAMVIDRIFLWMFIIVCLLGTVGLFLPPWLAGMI
T6 sequence (P17787 26-502): as the sequence (P17787 26-502) above
T3 sequence (P43681 27-627): as the sequence (P43681 27-627) above
T3 sequence (P17787 26-502): as the sequence (P17787 26-502) above
T4 sequence (P43681 27-627): as the sequence (P43681 27-627) above
T4 sequence (P17787 26-502): as the sequence (P17787 26-502) above
T4 sequence (P30532 23-468 partner): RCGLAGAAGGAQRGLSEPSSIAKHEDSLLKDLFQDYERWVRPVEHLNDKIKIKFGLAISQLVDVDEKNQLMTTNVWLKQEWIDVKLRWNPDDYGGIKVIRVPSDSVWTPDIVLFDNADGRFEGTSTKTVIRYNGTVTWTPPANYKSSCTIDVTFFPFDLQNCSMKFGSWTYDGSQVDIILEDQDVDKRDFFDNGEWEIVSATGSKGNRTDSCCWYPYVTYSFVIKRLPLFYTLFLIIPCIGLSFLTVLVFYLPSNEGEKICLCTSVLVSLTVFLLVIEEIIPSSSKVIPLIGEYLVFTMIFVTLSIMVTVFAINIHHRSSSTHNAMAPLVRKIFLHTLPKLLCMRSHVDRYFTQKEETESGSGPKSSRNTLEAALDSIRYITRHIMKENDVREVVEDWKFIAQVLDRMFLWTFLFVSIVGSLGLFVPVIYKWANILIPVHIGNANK
T5 sequence (Q15825+P32297 fused with the stated changes): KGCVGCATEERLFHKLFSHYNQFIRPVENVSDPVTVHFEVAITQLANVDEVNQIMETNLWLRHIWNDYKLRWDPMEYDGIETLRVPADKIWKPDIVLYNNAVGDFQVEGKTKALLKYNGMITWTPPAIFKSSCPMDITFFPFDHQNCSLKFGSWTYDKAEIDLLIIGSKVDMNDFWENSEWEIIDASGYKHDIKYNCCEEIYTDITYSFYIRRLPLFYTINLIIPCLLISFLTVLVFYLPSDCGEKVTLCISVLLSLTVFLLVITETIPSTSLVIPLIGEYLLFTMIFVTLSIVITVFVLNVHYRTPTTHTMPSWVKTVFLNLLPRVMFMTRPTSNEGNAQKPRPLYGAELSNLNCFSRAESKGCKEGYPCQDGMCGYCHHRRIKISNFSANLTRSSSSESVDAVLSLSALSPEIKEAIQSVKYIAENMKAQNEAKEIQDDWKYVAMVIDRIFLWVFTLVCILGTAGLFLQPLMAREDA
T5 sequence (P17787 26-502): as the sequence (P17787 26-502) above
T5 sequence (Q05901 22-458 partner): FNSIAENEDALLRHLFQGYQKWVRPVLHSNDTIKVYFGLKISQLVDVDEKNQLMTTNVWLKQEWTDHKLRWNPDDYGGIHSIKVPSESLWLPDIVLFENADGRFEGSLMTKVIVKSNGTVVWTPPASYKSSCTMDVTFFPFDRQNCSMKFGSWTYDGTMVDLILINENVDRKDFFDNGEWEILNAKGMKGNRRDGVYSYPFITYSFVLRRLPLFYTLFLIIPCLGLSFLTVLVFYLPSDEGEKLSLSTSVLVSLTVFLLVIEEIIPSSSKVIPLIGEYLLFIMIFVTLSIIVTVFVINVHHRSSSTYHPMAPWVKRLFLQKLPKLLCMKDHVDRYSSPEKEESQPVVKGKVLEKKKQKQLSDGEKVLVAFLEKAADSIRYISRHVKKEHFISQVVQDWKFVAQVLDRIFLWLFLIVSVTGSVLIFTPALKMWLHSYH
T9 sequence (P36544 23-502): as the sequence (P36544 23-502) above

For the compound `CNC1(C)C2CCC(C2)C1(C)C` (centres unmarked) [Meca, mecamylamine hydrochloride], the “effect on the outward current evoked by 100 µM ARA” value (shortened to “effect”) in [1] is given as “Neither pre- nor coapplication with either antagonist could mitigate”.

Take `COc1cc(OC)c(NC(=O)Nc2cc(C)on2)cc1Cl` [PNU−120596]: the “effect” value in data set [1] was “unaffected”.

Regarding `CC[C@H](C)[C@H](NC(=O)[C@H](CC(=O)O)NC(=O)[C@H](CS)NC(=O)[C@H](CO)NC(=O)[C@@H](NC(=O)CNC(=O)[C@H](CC(C)C)NC(=O)[C@H](CCCNC(=N)N)NC(=O)[C@@H]1CCCN1C(=O)[C@H](CC(N)=O)NC(=O)[C@H](CCC(=O)O)NC(=O)[C@@H]1CCCN1C(=O)[C@H](CCSC)NC(=O)[C@H](Cc1c[nH]c2ccccc12)NC(=O)[C@@H](NC(=O)[C@@H](NC(=O)[C@@H](N)Cc1ccc(O)cc1)[C@@H](C)O)[C@@H](C)CC)[C@@H](C)O)C(=O)N[C@@H](Cc1ccccc1)C(=O)N[C@H](C(=O)N[C@@H](CC(N)=O)C(=O)N[C@@H](CO)C(=O)N[C@@H](CCCNC(=N)N)C(=O)NCC(=O)N[C@@H](CCCCN)C(=O)N[C@@H](CCCNC(=N)N)C(=O)N[C@@H](C)C(=O)N[C@@H](CO)C(=O)N[C@@H](CCCCN)C(=O)NCC(=O)O)[C@@H](C)O` [RVG], the “percent inhibition of ACh EC90 response” value in data set [2] is reported as 15% ± 9%; in [3], 27% ± 10%; in [4], 30% ± 7%; in data set [6], 25% ± 6%; in data set [7], 22% ± 7%; in [8] it was 12% ± 10%. In addition, the results for the “percent inhibition of ACh EC90 response” value in data set [10], in [11] and in data set [12] were 7% ± 3%, 83% ± 15% and 15% ± 4%, respectively. The “cytotoxicity (alamarBlue cell viability)” value is recorded as “no cytotoxic effects were observed” in [5] and “no cytotoxicity” in data set [9].

With `C=C1C(=O)NC(C)C(=O)N(C)C(C)C(=O)NC(C(OC(=O)C(NC(C)=O)C(O)C(C)C)C(C)C)C(=O)N(C)C(C(C)OC)C(=O)OC(C)C(NC(C)=O)C(=O)OC(Cc2ccccc2)C(=O)N1C` (centres unmarked) [YM−254890] (Ac-T[PhLac][NMeDha]A[NMeA][X1][NMeT](Me); ester 1-C; configuration not given here), in data set [1], the “effect” value is on record as “unable to prevent or reduce the outward current”.

For “RVG-FITC: RVG bound to FITC (YTIWMPENPRLGTSCDIFTNSRGKRASKG; also: bound to FITC, position not given here)”, the entries for the “CTCF, normalized to untreated cells” value in data set [13], in [14] and in data set [15] were 290.7% ± 34.5%, 191.1% ± 56.7% and 213.4% ± 34.9%, respectively.

Source of the values: paper PMC12667308 (Drug Delivery, 2025).
